Marks after values point to notes of the source that are not given here.
Columns and labels:
Assay type in all cases: in vivo, Sprague Dawley rats
[1] = system: ovariectomized (OVX) rats; experiment: Four day dosing regimen, post-menopausal rat model: wet uterine weight; details: OVX rats, oral, daily for 4 days
Method: (§1) Animals were dosed daily for 4 days. […] A blood sample was collected by cardiac puncture.

[2] = system: uterine eosinophil peroxidase activity; experiment: Uterine eosinophil peroxidase (EPO) assay, four day dosing; details: OVX rats, oral, daily for 4 days
Method: as §1

[3] = system: ovariectomized (OVX) rats; experiment: Serum cholesterol analysis, four day dosing; details: Rattus norvegicus, po, 96 h, OVX rats, oral, daily for 4 days, read-out: Serum Cholesterol (% dec. OVX)
Method: as §1
Blood samples were allowed to clot at room temperature for 2 hours, and serum was obtained following centrifugation for 10 minutes at 3000 rpm. Serum cholesterol was determined using a Boehringer Mannheim Diagnostics high performance cholesterol assay. Briefly the cholesterol was oxidized to cholest-4-en-3-one and hydrogen peroxide. The hydrogen peroxide was then reacted with phenol and 4-aminophenazone in the presence of peroxidase to produce a p-quinone imine dye, which was read spectrophotemetrically at 500 nm. Cholesterol concentration was then calculated against a standard curve. The entire assay was automated using a Biomek Automated Workstation.

Row | SMILES | Uterine Weight (% inc. OVX) ([1]; dose 0.1 mg/kg) | Uterine Weight (% inc. OVX) ([1]; dose 1 mg/kg) | Uterine Weight (% inc. OVX) ([1]; dose 10 mg/kg) | Uterine EPO (Vmax) ([2]; dose 0.1 mg/kg) | Uterine EPO (Vmax) ([2]; dose 1 mg/kg) | Uterine EPO (Vmax) ([2]; dose 10 mg/kg) | inhibition in vivo at 0.1 mg/kg [3] | inhibition in vivo at 1 mg/kg [3] | inhibition in vivo at 10 mg/kg [3]
1 | O=C(NCCOc1ccc(C(=O)c2c(-c3ccc(O)cc3)sc3cc(O)ccc23)cc1)c1ccccc1 [Compound 18] | 16.1 % inc. OVX | 25.7 % inc. OVX | 12.6 % inc. OVX | 3.2 Vmax | 3.6 Vmax | 3.6 Vmax | -10.8% | -12.2% | 12.8%
2 | CC(C#N)Oc1ccc(C(=O)c2c(-c3ccc(O)cc3)sc3cc(O)ccc23)cc1 (stereo not shown) [Compound 16] | 0.7 % inc. OVX | 27.4 % inc. OVX | 99.2* % inc. OVX | 2.3 Vmax | 3.9 Vmax | 23.4 Vmax | 3.4% | 28.8% | 71.2%
3 | CC(C)(C)C(=O)N1CCC(Oc2ccc(C(=O)c3c(-c4ccc(O)cc4)sc4cc(O)ccc34)cc2)CC1 [Compound 23] | −4.3 % inc. OVX | 0.8 % inc. OVX | 22.3 % inc. OVX | 1.6 Vmax | 3.8 Vmax | 6.7 Vmax |  |  | 55.8%
4 | CN(C)C(=O)COc1ccc(C(=O)c2c(-c3ccc(O)cc3)sc3cc(O)ccc23)cc1 [Compound 12] | −7.7 % inc. OVX | 15.4 % inc. OVX | 60.7* % inc. OVX | 3.7 Vmax | 6.7 Vmax | 122.3* Vmax |  |  | 
5 | CCCCN(C)C(=O)COc1ccc(C(=O)c2c(-c3ccc(O)cc3)sc3cc(O)ccc23)cc1 [Compound 10] | 1.5 % inc. OVX | −6.7 % inc. OVX | 38.0* % inc. OVX | 4.3 Vmax | 3.1 Vmax | 17.0 Vmax |  |  | 
6 | O=C(NCCOc1ccc(C(=O)c2c(-c3ccc(O)cc3)sc3cc(O)ccc23)cc1)NC1CCCCC1 [Compound 20] | −29.9 % inc. OVX | −27.4 % inc. OVX | −32.7 % inc. OVX | 3.0 Vmax | 2.5 Vmax | 2.9 Vmax |  |  | 
7 | O=C(c1ccc(OCCN2CCCCC2=O)cc1)c1c(-c2ccc(O)cc2)sc2cc(O)ccc12 [Compound 3] | 13.3 % inc. OVX | 17.8 % inc. OVX | 57.6* % inc. OVX | 8.0 Vmax | 7.8 Vmax | 8.9 Vmax |  |  | 
8 | O=C(c1ccc(OCC(=O)N2CCCCC2)cc1)c1c(-c2ccc(O)cc2)sc2cc(O)ccc12 [Compound 9] | −10.0 % inc. OVX | 6.5 % inc. OVX | 51.7* % inc. OVX | 2.8 Vmax | 3.6 Vmax | 32 Vmax |  |  | 
9 | O=C(c1ccc(OCCN2C(=O)CCC2=O)cc1)c1c(-c2ccc(O)cc2)sc2cc(O)ccc12 [Compound 13] | 22.2 % inc. OVX | 7.2 % inc. OVX | −4.0 % inc. OVX | 1.9 Vmax | 1.7 Vmax | 2.5 Vmax |  |  | 
10 | O=C(c1ccc(OCCN2CCCC2=O)cc1)c1c(-c2ccc(O)cc2)sc2cc(O)ccc12 [Compound 6] | −9 % inc. OVX | 15.4 % inc. OVX | 40.3* % inc. OVX | 3.6 Vmax | 1.4 Vmax | 3.7 Vmax |  |  | 
